For one experiment, the target named is M.Hpall (Haemophilus parainfluenzae, UniProt P15446). Particulars: 13 mM formaldehyde, 1000 nM M.Hpall, 100 nM pUC-618, 1 hour, room temperature.
The next experiment has as its target M.Sssl (Spiroplasma monobiae, UniProt P15840). Particulars: 13 mM formaldehyde, 500 nM M.Sssl, 100 nM pUC-618, 1 hour, room temperature.
Another experiment concerns the target M.Hhal (Haemophilus parahaemolyticus, UniProt P05102). The experiment is described as follows: DNA protection assay: pUC-618 fragment modified with aldehyde in the presence of M.Hhal, then R.Hin6I cleavage. Particulars: 800 mM acetaldehyde, 50 nM M.Hhal, 100 nM pUC-618, 1 hour, room temperature. It is filed as biochemical. The protocol:
A 618 bp fragment of plasmid […] (pUC-618), which contains a single target site for M.Hhal, was used as a DNA substrate. pUC-618 was prepared by PCR amplification of the pUC19 template (Fermentas Life Sciences) using Dir (5′-[…]) (SEQ ID No:11) and Rev (5′-[…]) (SEQ ID No:12) primers and Taq DNA Polymerase (Fermentas Life Sciences). The PCR fragment was purified by Sephacryl S-400 (GE Healthcare) following the precipitation by ethanol. pUC-618 contains a single target site for M.Hhal.

Molecules are shown by their SMILES.

Sequence of M.Hpall (P15446 whole entry): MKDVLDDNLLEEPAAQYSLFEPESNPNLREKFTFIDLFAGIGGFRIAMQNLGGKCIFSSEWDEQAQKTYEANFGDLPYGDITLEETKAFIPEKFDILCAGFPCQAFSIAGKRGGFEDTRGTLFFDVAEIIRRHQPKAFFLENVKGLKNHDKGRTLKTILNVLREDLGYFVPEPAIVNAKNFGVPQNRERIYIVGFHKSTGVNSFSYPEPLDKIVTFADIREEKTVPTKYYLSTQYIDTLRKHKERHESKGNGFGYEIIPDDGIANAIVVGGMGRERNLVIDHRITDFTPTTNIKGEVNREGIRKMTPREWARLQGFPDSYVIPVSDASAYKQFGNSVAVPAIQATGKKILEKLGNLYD
Sequence of M.Sssl (P15840 whole entry, the tested form may be a part): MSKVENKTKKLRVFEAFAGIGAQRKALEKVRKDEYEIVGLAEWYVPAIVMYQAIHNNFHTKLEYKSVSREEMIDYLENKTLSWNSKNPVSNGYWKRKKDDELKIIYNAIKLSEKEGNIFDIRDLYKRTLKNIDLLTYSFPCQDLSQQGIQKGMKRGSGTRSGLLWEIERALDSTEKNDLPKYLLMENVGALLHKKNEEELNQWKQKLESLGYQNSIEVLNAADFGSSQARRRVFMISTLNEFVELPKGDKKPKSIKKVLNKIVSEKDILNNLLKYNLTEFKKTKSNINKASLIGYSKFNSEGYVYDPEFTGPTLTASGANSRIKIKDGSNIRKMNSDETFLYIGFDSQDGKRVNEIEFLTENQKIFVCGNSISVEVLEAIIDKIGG
Sequence of M.Hhal (P05102 whole entry, the tested form may be a part): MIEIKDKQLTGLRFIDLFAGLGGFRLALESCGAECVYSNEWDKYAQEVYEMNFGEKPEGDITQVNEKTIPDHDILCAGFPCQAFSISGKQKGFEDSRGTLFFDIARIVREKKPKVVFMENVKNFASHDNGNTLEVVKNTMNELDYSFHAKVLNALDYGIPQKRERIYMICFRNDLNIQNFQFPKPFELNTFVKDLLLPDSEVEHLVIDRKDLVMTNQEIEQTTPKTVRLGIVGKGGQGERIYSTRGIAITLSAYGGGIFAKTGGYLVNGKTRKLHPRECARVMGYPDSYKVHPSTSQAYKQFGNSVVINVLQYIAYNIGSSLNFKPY

With `C=O` [formaldehyde], at M.Hpall, the “resistance of the CCGG sites to cleavage with R.Hpall” value is on record as 70%. The “resistance of the GCGC site to cleavage with R.Hin6I” value on M.Sssl is 70%.

`CC=O` [acetaldehyde]: the “resistance of the GCGC site to R.Hin6I cleavage” value at M.Hhal is “nearly fully”.

The values are drawn from patent US8822146B2, “Derivatization of biomolecules by covalent coupling of non-cofactor compounds using methyltransferases” (Vilnius University, priority 2009, dated 2014).
